Source: patent US20070275403A1, “Diagnostic methods for determining treatment” (priority 2006, published 2007)
“And” between values parts separate entries of the source, which are not always exact repeats. Identical values can stand only once. Like-named read-outs stand apart in the source and are kept apart here.

Legend:
NSCLC [1] = conditions: patients previously screened for EGFR expression; cited from earlier work
NSCLC patients [2] = assay: Objective response (RECIST) of NSCLC patients in the gefitinib expanded access trial, by demographic and molecular subgroup; type: in vivo, human
Method: (§1) Specimens. […] Chart review and study analyses were approved by the RUMC Institutional Review Board. The diagnosis of NSCLC in the archival material was obtained from pathology reports and confirmed by histologic evaluation before further analysis. Age, gender, smoking status and disease grade were established from chart review and patient report at registration. Smoking status was defined by lifetime consumption of <100 cigarettes. Response was assessed according to RECIST criteria of measurable and non-measurable lesions. […] Progressive disease was defined by relapse within 70 days of treatment.
(§2) In Situ Hybridization. For copy number analyses by FISH, EGFR and centromere 7 (CEN7) probes were utilized to examine EGFR/cell, CEN7/cell and EGFR/CEN 7. A probe targeting α satellite repeat sequences near the centromere of chromosome 7 was used to indicate CEN 7 copy number (SpectrumGreen™ CEP® 7, Abbott Molecular Inc.). Specimen slides were prepared using either the Vysis Paraffin Pretreatment II or III kits (Abbott Molecular Inc.). The prepared specimen slides were hybridized with two-color FISH probe solutions (SpectrumOrange™ LSI® EGFR, Spectrum-Green CEP 7; Abbott Molecular Inc.) in a HYBrite™ automated co-denaturation oven (Abbott Molecular Inc.). The slides were placed on the oven surface and 10 μL probe solution was layered over the tissue section. A cover slip was applied over the probe solution and sealed to the slide with rubber cement. After denaturation at 73° C. for 5 minutes, the probe was hybridized at 37° C. for 16-18 hr. Following hybridization and removal of the rubber cement seal, the slides were placed in room-temperature 2×SSC (SSC=0.3 M NaCl, 15 mM sodium citrate), 0.3% Nonidet P40 (NP40) for 2-5 min to detach the cover slips. The slides were then immersed in 73° C. 2×SSC, 0.3% NP40 for 2 min to remove nonspecifically bound probe and then were allowed to dry in the dark. DAPI I antifade solution (Abbott Molecular Inc.) was applied to the specimen for visualization of the nuclei. […] Over-digested or under-digested specimens were reprocessed as described previously.
(§3) Typically, 30-90 (median 80) cells were enumerated in each specimen. The mean number of signals per cell was calculated by totaling the number of signals from each cell for EGFR and CEN 7, and dividing by the number of cells counted to provide EGFR/cell and CEN 7/cell, respectively. EGFR/cell was divided by CEN 7/cell signals per cell to yield EGFR/CEN7. Other FISH parameters used in developing selection criteria are defined as follows. The EGFR % gain or CEN 7% gain was calculated as the percentage of cells with more than two EGFR or CEN 7 signals, respectively. […] When a slide was counted multiple times, counts were combined and used for recalculating the ratios and % gain.
(§4) Optimal cutoff points for defining high ratios or high % gains were selected by first generating cutoffs from the mean minus 1.5 standard deviations to the mean plus 3.5 standard deviations, in 0.1 standard deviation increments, for each parameter (ratios and % gains), using the mean and standard deviations of the non responding patients. Each high and low ratios and % gains at each cutoff were compared with objective response and survival (greater than or less than 1 year survival) in contingency tables. Cutoffs with the lowest chi-square probabilities were selected for further analysis.
(§5) Immunohistochemistry. Paraffin sections (5 μm, freshly cut) were deparaffinized and rehydrated by standard technique. A microwave antigen retrieval method was then carried out in citrate buffer. The tissue was stained using a Ventana ES Histo-stainer (Ventana Medical Systems, Tucson, Ariz.) using supplied diaminobenzidine and avidin-biotin conjugate immunoperoxidase chemistry.
Immunostaining frequency of all tumor cells on each slide was estimated on a scale of 0 to 4 without knowledge of clinical patient data.

NSCLC patients [3] = assay: Overall survival (Kaplan-Meier) of NSCLC patients in the gefitinib expanded access trial, by molecular subgroup; type: in vivo, human
Method: as §1, §2, §3, §4
Cutpoints were also assigned to indicate loss of chromosome 7, either monosomy or nullisomy.
as §5

NSCLC [4] = conditions: phase II trials; cited from earlier work
NSCLC [5] = conditions: phase III trial; cited from earlier work

## C#Cc1cccc(Nc2ncnc3cc(OCCOC)c(OCCOC)cc23)c1 [Erlotinib, erlotinib]
NSCLC [1]
  response rate: 12.3%

## COc1cc2ncnc(Nc3ccc(F)c(Cl)c3)c2cc1OCCCN1CCOCC1 [gefitinib]
NSCLC patients [2]; 250 mg daily gefitinib, Total, 81 patients
  Objective Response (partial and complete, RECIST), number of patients (%): 12 (15) %
NSCLC patients [2]; 250 mg daily, Age <60 years
  Objective Response, number of patients (%): 8 (13) %
NSCLC patients [2]; 250 mg daily, Age ≧60 years
  Objective Response, number of patients (%): 4 (21) %
NSCLC patients [2]; 250 mg daily, Gender Female
  Objective Response, number of patients (%): 7 (16) %
NSCLC patients [2]; 250 mg daily, Gender Male
  Objective Response, number of patients (%): 5 (14) %
NSCLC patients [2]; 250 mg daily, Histopathological subtype Bronchoalveolar, adenocarcinoma
  Objective Response, number of patients (%): 10 (18) %
NSCLC patients [2]; 250 mg daily, Histopathological subtype Other
  Objective Response, number of patients (%): 2 (8) %
NSCLC patients [2]; 250 mg daily, Never smoked
  Objective Response, number of patients (%): 7 (58) %
NSCLC patients [2]; 250 mg daily, Performance status 0 to 1
  Objective Response, number of patients (%): 6 (13) %
NSCLC patients [2]; 250 mg daily, Performance status 2 to 4
  Objective Response, number of patients (%): 6 (18) %
NSCLC patients [2]; 250 mg daily, Prior chemotherapy None
  Objective Response, number of patients (%): 2 (14) %
NSCLC patients [2]; 250 mg daily, Prior chemotherapy One
  Objective Response, number of patients (%): 7 (18) %
NSCLC patients [2]; 250 mg daily, Prior chemotherapy Two or more
  Objective Response, number of patients (%): 3 (5) %
NSCLC patients [2]; 250 mg daily, Smoking status Yes
  Objective Response, number of patients (%): 5 (7) %
NSCLC patients [2]; 81 patients, 250 mg daily gefitinib
  Overall response: 15%
NSCLC patients [2]; CEN 7/cell <3.6
  Objective Response, number of patients (%): 7 (11) %
NSCLC patients [2]; CEN 7/cell <3.8
  Objective Response, number of patients (%): 7 (11) %
NSCLC patients [2]; CEN 7/cell <3.8 and >2.0 (“normal”)
  Objective Response, number of patients (%): 7 (13) %
NSCLC patients [2]; CEN 7/cell <4
  Objective Response, number of patients (%): 7 (11) %
NSCLC patients [2]; CEN 7/cell >3.8 or <2.0 (aneusomy)
  Objective Response, number of patients (%): 5 (19) %
NSCLC patients [2]; CEN 7/cell ≧3.6
  Objective Response, number of patients (%): 5 (28) %
NSCLC patients [2]; CEN 7/cell ≧3.8
  Objective Response, number of patients (%): 5 (31) %
NSCLC patients [2]; CEN 7/cell ≧4
  Objective Response, number of patients (%): 5 (36) %
NSCLC patients [2]; EGFR % gain <75%
  Objective Response, number of patients (%): 5 (9) %
NSCLC patients [2]; EGFR % gain ≧75%
  Objective Response, number of patients (%): 7 (29) %
NSCLC patients [2]; EGFR IHC 0
  Objective Response, number of patients (%): 3 (9) %
NSCLC patients [2]; EGFR IHC 1+ to 4+
  Objective Response, number of patients (%): 9 (20) %
NSCLC patients [2]; EGFR/CEN 7 % gain <34%
  Objective Response, number of patients (%): 3 (7) %
NSCLC patients [2]; EGFR/CEN 7 % gain ≧34%
  Objective Response, number of patients (%): 9 (23) %
NSCLC patients [2]; EGFR/CEN 7 <1
  Objective Response, number of patients (%): 1 (5) %
NSCLC patients [2]; EGFR/CEN 7 ≧1
  Objective Response, number of patients (%): 11 (19) %
NSCLC patients [2]; EGFR/cell ≦6 (FISH)
  Objective Response, number of patients (%): 7 (10) %
NSCLC patients [2]; EGFR/cell ≧6 (FISH)
  Objective Response, number of patients (%): 5 (46) %
NSCLC patients [2]; PTEN IHC Absent, 73 patients analyzed
  Objective Response, number of patients (%): 3 (7) %
NSCLC patients [2]; PTEN IHC Present (1+ to 4+), 73 patients analyzed
  Objective Response, number of patients (%): 8 (30) %
NSCLC patients [2]; of 81 patients
  patients with complete response: 2 patients
  patients with partial response: 10 patients
  patients with stable disease: Thirty-six
NSCLC patients [2]; pAKT IHC Absent, 73 patients analyzed
  Objective Response, number of patients (%): 4 (10) %
NSCLC patients [2]; pAKT IHC Present (1+ to 4+), 73 patients analyzed
  Objective Response, number of patients (%): 7 (21) %
NSCLC patients [3]; CEN 7 % ≧4 copies <52%
  Median Survival: 6.9 Months
NSCLC patients [3]; CEN7 % ≧4 copies ≧52%, pAKT+
  Median Survival: 39.4 months
NSCLC patients [3]; CEN7 % ≧4 copies, pAKT: Any negative
  Median Survival: 5.9 months
NSCLC patients [3]; CEN 7/cell <3.6 (non-polysomy)
  Median Survival: 6.0 Months
NSCLC patients [3]; CEN 7/cell <3.6 and >2.0 (“normal”)
  Median Survival: 5.8 Months
NSCLC patients [3]; CEN 7/cell >3.6 or <2.0 (aneusomy)
  Median Survival: 15.3 Months
NSCLC patients [3]; CEN 7/cell ≧3.6 (polysomy)
  Median Survival: 16.2 Months
NSCLC patients [3]; CEN 7/cell, pAKT: Any negative
  Median Survival: 5.9 months
NSCLC patients [3]; CEN 7 ≧3.6 (polysomy), pAKT+
  Median Survival: 24.5 months
NSCLC patients [3]; EGFR % gain <75%
  Median Survival: 7.9 Months
NSCLC patients [3]; EGFR % gain ≧75%
  Median Survival: 9.4 Months
NSCLC patients [3]; EGFR % gain ≧75% cells and pAKT+
  Median Survival: 24.5 months
NSCLC patients [3]; EGFR % gain, pAKT: Any negative
  Median Survival: 6.6 months
NSCLC patients [3]; EGFR Expression, IHC Not detected
  Median Survival: 8.5 Months
NSCLC patients [3]; EGFR Expression, IHC Present
  Median Survival: 7.1 Months
NSCLC patients [3]; EGFR/CEN 7 % gain <34%
  Median Survival: 6.0 Months
NSCLC patients [3]; EGFR/CEN 7 % gain ≧3.4%
  Median Survival: 10.3 Months
NSCLC patients [3]; EGFR/CEN7 % gain, PTEN: Any negative
  Median Survival: 6.6 months
NSCLC patients [3]; PTEN Expression, IHC Not detected
  Median Survival: 5.9 Months
NSCLC patients [3]; PTEN Expression, IHC Present
  Median Survival: 9.3 Months
NSCLC patients [3]; pAKT Expression, IHC Not detected
  Median Survival: 5.8 Months
NSCLC patients [3]; pAKT Expression, IHC Present
  Median Survival: 10.5 Months
NSCLC [4]
  response rate: 18.4% and 11.8%
NSCLC [5]
  response rate: 8-13%
  survival benefit: no significant survival benefit
